Structures are written as SMILES.

A short description of one data set: Solubility in solvents. It is filed as physicochemical. The source says:
A 2.5 gram sample of a red raspberry seed extract in a dry powder form was split into two fractions, one combined 1.25 grams of the dry extract with 11.25 grams of water to create a 10% aqueous solution of the extract. […] Combining 1.25 grams of the dry extract with about 11.25 grams of isopropyl alcohol (91%) produced an about 10% alcohol solution.
Using pure water was explored in extraction experiments with cranberry seed powder. The advantages of using water are essentially zero cost and toxicity. It is also a very polar solvent and will not extract any residual oils (which are very non-polar compounds) from the seed powders. The limitations of using water are that it gives quite low yields in extractions at room temperature and only dissolved the most polar compounds from the seed powders, leaving most of the medium polarity materials behind. It is possible that this could be improved by heating. […] Simply filtering the mixture through inexpensive filter paper by gravity or mild vacuum will be unsuccessful. One solution that worked was mixing in filtering media (diatomaceous earth) and then vacuum filtering through a bed of the same filtering medium. To completely clarify the mixture, an additional treatment with activated carbon and further vacuum filtering through a bed of diatomaceous earth was effective. Given the limitations of water extraction, it was not used extensively. […]

The nature of data set [1]: Solubility in the enzyme assay. It is filed as physicochemical. As to conditions: aqueous pH 7.00 phosphate buffer with DMSO stock.

As to `O=c1oc2c(O)c(O)cc3c(=O)oc4c(O)c(O)cc1c4c23` [ellagic acid], the solubility in water entry is “very water soluble” in “Solubility in solvents” (high pH) and “only slightly soluble” in “Solubility in solvents” (neutral pH). For the same molecule, in data set [1], the “solubility in the enzyme assay” value was “highly insoluble”.
